Earlier results, collected in patent US5496703A, “Indirect immunoassay for dioxinlike compounds” (priority 1993, dated 1996).
Like-named read-outs stand apart in the source and are kept apart here.

How the values were obtained:
[1] = tested on: AHH; details: responsive C57BL/6J inbred mouse strain; cited from earlier work
[2] = tested on: Ah receptor; details: cited from earlier work
[3] = tested on: AHH; details: nonresponsive DBA/2 inbred mouse strain; cited from earlier work

Row | SMILES | AHH induction [1] | binding affinity to Ah receptor [2] | AHH induction [3]
1 | Cc1ccc2cc3c(ccc4ccccc43)c3c2c1CC3 [3-methylcholanthrene] | capable of inducing AHH activity | high affinity | not in the nonresponsive DBA/2 inbred mouse strain
2 | c1ccc2c(c1)cc1ccc3cccc4ccc2c1c34 [benzo[a]pyrene] | – | high affinity | –
